Test results taken from article PMC11206519, “Multi-Endpoint Toxicological Assessment of Chrysin Loaded Oil-in-Water Emulsion System in Different Biological Models” (Nanomaterials, 2024).
Where two headings read alike, the source gives them in different places.

Tests used:
[1] = system: HEK-293; assay: MTT cytotoxicity assay; assay type: cell-based; details: Homo sapiens, HEK293, 48 h
Experimental: (§1) RAW 264.7 (murine macrophage-like cell), 3T3-L1 adipocyte (murine adipocyte), HEK293 (human embryonic kidney cell), and LX-2 (human hepatic stellate cell) were obtained from American Type Culture Collection (ATCC, Manassas, VA, USA). RAW 264.7 macrophages were cultured as a suspension culture in an ultra-low attachment culture dish, whereas the others were cultured as adherent cells in a cell culture flask. The cells were grown in Dulbecco’s Modified Eagle Medium (DMEM) with L-glutamine, supplemented with 10% fetal bovine serum (FBS) (RAW 264.7, HEK293, and LX-2) or 10% fetal calf serum (FCS) (3T3-L1) and 1% penicillin under 5% CO2, at 37 °C. […] Blank-ES was used as a vehicle control. The amount of blank-ES was equal to chrysin-ES amount that was used for the treatment. The cytotoxicity of chrysin, chrysin-ES, and blank-ES in each cell was determined using an MTT assay. […] Then, the solution was gently removed, and the formazan crystal was dissolved with dimethyl sulfoxide (DMSO). The soluble formazan was measured using a microplate reader (Bio-TEK Synergy Hybrid Reader H4) at 540 nm. The cell viability is directly related to the absorbance of formazan. The percentage of cell viability was calculated using the following equation. Cell viability (%) = (Absorbance (sample))/(Absorbance (control)) × 100

[2] = system: 3T3-L1; assay: MTT cytotoxicity assay; assay type: cell-based; details: Mus musculus, 48 h
Experimental: as §1

[3] = system: LX-2; assay: MTT cytotoxicity assay; assay type: cell-based; details: Homo sapiens, LX-2, 48 h
Experimental: as §1

[4] = system: Sprague Dawley rats; details: ref 45 (Yao et al.), cited from earlier work
[5] = system: S. typhimurium TA98; assay: Ames test, anti-mutagenicity
Experimental: Furthermore, the anti-mutagenicity of the samples was performed by a similar procedure, as mentioned above. […] The percentage inhibition (decrease revertant colony number) was calculated as in the following equation:Anti-mutagenicity (%) = [1 − (b/a)] × 100 • a = revertant colony number induced via standard mutagen (positive control). • b = revertant colony number induced by standard mutagen in the presence of each sample treatment.
The percent of inhibition between 0–20%, 21–40%, 41–60%, and higher than 60% indicate negligible, weak, moderate, and strong anti-mutagenicity, respectively.

[6] = system: S. typhimurium TA 100; assay: Ames test, mutagenicity; assay type: cell-based, Salmonella Typhimurium
Experimental: (§2) The S. typhimurium strains TA 98 and TA 100 were used to detect frameshift and base-pair mutations, respectively. […] Then, they were poured onto minimal glucose agar containing a trace amount of histidine, following incubation at 37 °C for 48 h. Then, the revertant colonies were counted and compared with the negative control. If the number of revertant colonies in the tested sample treatment is at least twice that of the negative control (spontaneous revertant colonies), it is considered a mutagen.

[7] = system: S. typhimurium TA 98; assay: Ames test, mutagenicity; assay type: cell-based, Salmonella Typhimurium
Experimental: as §2

[8] = system: RAW 264.7; assay: MTT cytotoxicity assay; assay type: cell-based, murine; details: Mus musculus, RAW264.7, 48 h
Experimental: as §1

[9] = decreases cell viability by 20%
[10] = decreases cell viability by 50%
[11] = AF-2 0.1 µg/plate, −S9, 5.7 µM/plate
[12] = AF-2 0.1 µg/plate, −S9, 11.4 µM/plate
[13] = AF-2 0.1 µg/plate, −S9, 22.8 µM/plate
[14] = PhIP 0.1 µg/plate, +S9, 0.35 µM/plate
[15] = PhIP 0.1 µg/plate, +S9, 0.70 µM/plate
[16] = PhIP 0.1 µg/plate, +S9, 1.40 µM/plate
[17] = PhIP 0.1 µg/plate, +S9, 2.85 µM/plate
[18] = PhIP 0.1 µg/plate, +S9, 5.70 µM/plate

O=c1cc(-c2ccccc2)oc2cc(O)cc(O)c12 [Chrysin, 5,7-dihydroxyflavone]
IC20 [1, 9]: ~53 µM
IC50 [1, 10]: > 90 µM
IC20 [2, 9]: > 90 µM
IC50 [2, 10]: > 90 µM
IC20 [3, 9]: ~52 µM
IC50 [3, 10]: > 90 µM
mortality ([4]; single oral 5000 mg/kg BW): 40%
LD50 ([4]; single oral administration): ~5000 mg/kg BW
Inhibitory Classification [5, 11]: Mild
Number of Revertant Colonies [5, 11]: 166 ± 23
Inhibitory Classification [5, 12]: Moderate
Number of Revertant Colonies [5, 12]: 140 ± 39
Inhibitory Classification [5, 13]: Mild
Number of Revertant Colonies [5, 13]: 164 ± 56
Inhibitory Classification [5, 14]: Moderate
Number of Revertant Colonies [5, 14]: 214 ± 9
Inhibitory Classification [5, 15]: Strong
Number of Revertant Colonies [5, 15]: 153 ± 10
Inhibitory Classification [5, 16]: Strong
Number of Revertant Colonies [5, 16]: 77 ± 12
Inhibitory Classification [5, 17]: Strong
Number of Revertant Colonies [5, 17]: 71 ± 9
Inhibitory Classification [5, 18]: Strong
Number of Revertant Colonies [5, 18]: 45 ± 18
inhibition at […] ([5]; Salmonella enterica, TYPHIMURIUM, read-out: % mutagenic inhibition, AF-2 0.1 µg/plate, −S9, 5.7 µM/plate): 34%
inhibition at 11.4 µM ([5]; Salmonella enterica, TYPHIMURIUM, read-out: % mutagenic inhibition, AF-2 0.1 µg/plate, −S9, 11.4 µM/plate): 45%
inhibition at 22.8 µM ([5]; Salmonella enterica, TYPHIMURIUM, read-out: % mutagenic inhibition, AF-2 0.1 µg/plate, −S9, 22.8 µM/plate): 35%
inhibition at 0.35 µM ([5]; Salmonella enterica, TYPHIMURIUM, read-out: % mutagenic inhibition, PhIP 0.1 µg/plate, +S9, 0.35 µM/plate): 46%
inhibition at 0.7 µM ([5]; Salmonella enterica, TYPHIMURIUM, read-out: % mutagenic inhibition, PhIP 0.1 µg/plate, +S9, 0.70 µM/plate): 62%
inhibition at 1.4 µM ([5]; Salmonella enterica, TYPHIMURIUM, read-out: % mutagenic inhibition, PhIP 0.1 µg/plate, +S9, 1.40 µM/plate): 81%
inhibition at 2.85 µM ([5]; Salmonella enterica, TYPHIMURIUM, read-out: % mutagenic inhibition, PhIP 0.1 µg/plate, +S9, 2.85 µM/plate): 82%
inhibition at […] ([5]; Salmonella enterica, TYPHIMURIUM, read-out: % mutagenic inhibition, PhIP 0.1 µg/plate, +S9, 5.70 µM/plate): 89%
Number of Revertant Colonies ([6]; +S9, 5.7 µM/plate): 136 ± 12
Number of Revertant Colonies ([6]; +S9, 11.4 µM/plate): 131 ± 7
Number of Revertant Colonies ([6]; +S9, 22.8 µM/plate): 136 ± 8
Number of Revertant Colonies ([6]; −S9, 5.7 µM/plate): 120 ± 6
Number of Revertant Colonies ([6]; −S9, 11.4 µM/plate): 115 ± 7
Number of Revertant Colonies ([6]; −S9, 22.8 µM/plate): 117 ± 4
Number of Revertant Colonies ([7]; +S9, 5.7 µM/plate): 27 ± 7
Number of Revertant Colonies ([7]; +S9, 11.4 µM/plate): 26 ± 8
Number of Revertant Colonies ([7]; +S9, 22.8 µM/plate): 27 ± 8
mutagenicity in the Ames test ([7]; TA98 and TA100, presence and absence of metabolic activation): did not induce mutations
Number of Revertant Colonies ([7]; −S9, 5.7 µM/plate): 22 ± 6
Number of Revertant Colonies ([7]; −S9, 11.4 µM/plate): 23 ± 5
Number of Revertant Colonies ([7]; −S9, 22.8 µM/plate): 23 ± 7
IC20 [8, 9]: ~43 µM
IC50 [8, 10]: ~69 µM
